# Source: patent US10870832B2, “Use of small molecules to enhance MAFA expression in pancreatic endocrine cells” (Janssen Biotech, Inc., priority 2014, dated 2020)
# What was measured:
# Assay in all cases: Kinase profiling of R428
# Format in all cases: biochemical
# ZIPK(h) = ZIPK(h) (Homo sapiens, UniProt O43293); settings: 100 μM ATP, lower number = more robust inhibition
# Protocol: (§1) The efficiency of the AXL inhibitor R428 for targeting different kinases was assessed by Kinase Profiling Services using 100 μM ATP concentration (EMD Millipore). R428 was tested at 1 and 10 μM. Table IV lists the kinases profiled along with the efficiency in targeting the kinases with a lower number indicating a more robust inhibition of a particular kinase.
# SAPK3(h) = SAPK3(h) (Homo sapiens, UniProt P53778); settings: 100 μM ATP, lower number = more robust inhibition
# Protocol: as §1
# Flt3(h) = molecular target: T1, Flt3(h) (Homo sapiens, UniProt P36888); settings: for efficiency in targeting Flt3(h): 100 μM ATP, lower number = more robust inhibition
# T1 sequence (P36888 27-993): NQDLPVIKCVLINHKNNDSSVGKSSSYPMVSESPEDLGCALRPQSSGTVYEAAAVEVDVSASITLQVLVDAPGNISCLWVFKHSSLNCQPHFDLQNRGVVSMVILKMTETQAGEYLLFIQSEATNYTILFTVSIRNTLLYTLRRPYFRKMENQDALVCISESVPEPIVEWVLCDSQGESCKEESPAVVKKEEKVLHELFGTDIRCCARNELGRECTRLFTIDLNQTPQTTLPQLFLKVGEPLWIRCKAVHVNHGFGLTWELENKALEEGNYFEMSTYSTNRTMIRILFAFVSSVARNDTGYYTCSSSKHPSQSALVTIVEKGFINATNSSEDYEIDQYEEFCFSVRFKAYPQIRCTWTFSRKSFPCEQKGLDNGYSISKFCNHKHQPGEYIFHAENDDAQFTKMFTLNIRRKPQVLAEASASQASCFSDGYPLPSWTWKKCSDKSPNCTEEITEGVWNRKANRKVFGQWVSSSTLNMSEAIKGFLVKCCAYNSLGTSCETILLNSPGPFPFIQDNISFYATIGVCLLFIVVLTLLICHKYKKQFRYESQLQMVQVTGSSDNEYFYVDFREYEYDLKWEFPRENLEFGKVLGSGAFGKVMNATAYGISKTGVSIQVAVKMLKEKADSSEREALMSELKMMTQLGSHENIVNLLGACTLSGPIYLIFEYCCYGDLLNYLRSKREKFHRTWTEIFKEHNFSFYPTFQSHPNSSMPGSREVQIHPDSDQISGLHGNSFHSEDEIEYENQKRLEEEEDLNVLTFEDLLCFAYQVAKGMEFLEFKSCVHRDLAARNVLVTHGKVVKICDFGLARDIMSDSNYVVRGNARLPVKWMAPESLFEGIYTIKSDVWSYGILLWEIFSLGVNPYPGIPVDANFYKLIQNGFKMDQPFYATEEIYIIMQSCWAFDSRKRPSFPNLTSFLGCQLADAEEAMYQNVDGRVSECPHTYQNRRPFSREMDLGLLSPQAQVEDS
# Protocol: as §1
# ZAP-70(h) = ZAP-70(h) (Homo sapiens, UniProt P43403); settings: 100 μM ATP, lower number = more robust inhibition
# Protocol: as §1
# CK2α2(h) = CK2α2(h) (Homo sapiens, UniProt P19784); settings: 100 μM ATP, lower number = more robust inhibition
# Protocol: as §1
# Eph A 2(h) = Eph A 2(h) (Homo sapiens, UniProt P29317); settings: 100 μM ATP, lower number = more robust inhibition
# Protocol: as §1
# CK2(h) = CK2(h) (Homo sapiens, UniProt P68400); settings: 100 μM ATP, lower number = more robust inhibition
# CK2(h), sequence (P68400 whole entry): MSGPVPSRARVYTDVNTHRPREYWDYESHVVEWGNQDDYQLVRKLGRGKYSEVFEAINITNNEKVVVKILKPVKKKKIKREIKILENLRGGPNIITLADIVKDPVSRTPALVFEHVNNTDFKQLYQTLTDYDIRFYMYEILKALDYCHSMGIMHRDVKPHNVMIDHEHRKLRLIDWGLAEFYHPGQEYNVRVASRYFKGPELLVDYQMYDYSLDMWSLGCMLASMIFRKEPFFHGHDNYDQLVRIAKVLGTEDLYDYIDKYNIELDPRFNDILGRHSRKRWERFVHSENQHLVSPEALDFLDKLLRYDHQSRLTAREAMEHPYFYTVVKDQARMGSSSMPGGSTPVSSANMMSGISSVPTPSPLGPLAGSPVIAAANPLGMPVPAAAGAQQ
# CK2(h), sequence (P67870 whole entry partner): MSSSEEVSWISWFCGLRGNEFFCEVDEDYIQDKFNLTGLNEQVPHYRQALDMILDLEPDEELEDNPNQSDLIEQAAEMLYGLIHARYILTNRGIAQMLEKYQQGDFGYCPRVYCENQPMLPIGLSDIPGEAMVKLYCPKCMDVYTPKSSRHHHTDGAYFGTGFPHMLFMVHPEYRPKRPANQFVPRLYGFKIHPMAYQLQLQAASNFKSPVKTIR
# Protocol: as §1
# Ret(h) = Ret(h) (Homo sapiens, UniProt P07949); settings: for efficiency in targeting Ret(h): 100 μM ATP, lower number = more robust inhibition
# Ret(h), sequence (P07949 29-1114): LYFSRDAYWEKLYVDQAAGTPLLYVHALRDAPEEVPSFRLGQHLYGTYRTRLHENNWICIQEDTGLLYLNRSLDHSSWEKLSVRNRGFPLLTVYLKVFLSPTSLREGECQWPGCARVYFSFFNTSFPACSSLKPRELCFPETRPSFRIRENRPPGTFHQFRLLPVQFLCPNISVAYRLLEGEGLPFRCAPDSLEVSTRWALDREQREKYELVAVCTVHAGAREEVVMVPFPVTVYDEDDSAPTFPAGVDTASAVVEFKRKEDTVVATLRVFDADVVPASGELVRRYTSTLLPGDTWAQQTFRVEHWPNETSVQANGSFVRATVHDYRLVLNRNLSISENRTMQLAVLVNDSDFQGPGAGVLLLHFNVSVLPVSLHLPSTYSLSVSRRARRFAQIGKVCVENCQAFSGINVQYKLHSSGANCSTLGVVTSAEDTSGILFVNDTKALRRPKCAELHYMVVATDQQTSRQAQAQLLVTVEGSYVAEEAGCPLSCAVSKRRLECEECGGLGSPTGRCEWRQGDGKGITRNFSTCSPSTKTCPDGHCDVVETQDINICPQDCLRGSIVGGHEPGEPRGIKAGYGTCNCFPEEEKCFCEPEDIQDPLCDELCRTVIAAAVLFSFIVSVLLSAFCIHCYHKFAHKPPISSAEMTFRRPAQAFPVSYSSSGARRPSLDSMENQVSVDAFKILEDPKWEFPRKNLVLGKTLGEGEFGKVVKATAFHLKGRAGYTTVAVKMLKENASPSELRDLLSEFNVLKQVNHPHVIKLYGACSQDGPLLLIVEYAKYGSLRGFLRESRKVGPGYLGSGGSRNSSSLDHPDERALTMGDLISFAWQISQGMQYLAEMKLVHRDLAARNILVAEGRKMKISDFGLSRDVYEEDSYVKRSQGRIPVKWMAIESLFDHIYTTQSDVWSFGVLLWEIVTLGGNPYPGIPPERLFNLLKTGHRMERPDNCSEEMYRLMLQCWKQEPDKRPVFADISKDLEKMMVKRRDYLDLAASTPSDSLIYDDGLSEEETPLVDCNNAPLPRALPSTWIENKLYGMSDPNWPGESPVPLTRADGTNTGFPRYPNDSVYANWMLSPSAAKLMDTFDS
# Protocol: as §1
# IR(h) = IR(h) (Homo sapiens, UniProt P06213); settings: 100 μM ATP, lower number = more robust inhibition
# IR(h), sequence (P06213 28-1382): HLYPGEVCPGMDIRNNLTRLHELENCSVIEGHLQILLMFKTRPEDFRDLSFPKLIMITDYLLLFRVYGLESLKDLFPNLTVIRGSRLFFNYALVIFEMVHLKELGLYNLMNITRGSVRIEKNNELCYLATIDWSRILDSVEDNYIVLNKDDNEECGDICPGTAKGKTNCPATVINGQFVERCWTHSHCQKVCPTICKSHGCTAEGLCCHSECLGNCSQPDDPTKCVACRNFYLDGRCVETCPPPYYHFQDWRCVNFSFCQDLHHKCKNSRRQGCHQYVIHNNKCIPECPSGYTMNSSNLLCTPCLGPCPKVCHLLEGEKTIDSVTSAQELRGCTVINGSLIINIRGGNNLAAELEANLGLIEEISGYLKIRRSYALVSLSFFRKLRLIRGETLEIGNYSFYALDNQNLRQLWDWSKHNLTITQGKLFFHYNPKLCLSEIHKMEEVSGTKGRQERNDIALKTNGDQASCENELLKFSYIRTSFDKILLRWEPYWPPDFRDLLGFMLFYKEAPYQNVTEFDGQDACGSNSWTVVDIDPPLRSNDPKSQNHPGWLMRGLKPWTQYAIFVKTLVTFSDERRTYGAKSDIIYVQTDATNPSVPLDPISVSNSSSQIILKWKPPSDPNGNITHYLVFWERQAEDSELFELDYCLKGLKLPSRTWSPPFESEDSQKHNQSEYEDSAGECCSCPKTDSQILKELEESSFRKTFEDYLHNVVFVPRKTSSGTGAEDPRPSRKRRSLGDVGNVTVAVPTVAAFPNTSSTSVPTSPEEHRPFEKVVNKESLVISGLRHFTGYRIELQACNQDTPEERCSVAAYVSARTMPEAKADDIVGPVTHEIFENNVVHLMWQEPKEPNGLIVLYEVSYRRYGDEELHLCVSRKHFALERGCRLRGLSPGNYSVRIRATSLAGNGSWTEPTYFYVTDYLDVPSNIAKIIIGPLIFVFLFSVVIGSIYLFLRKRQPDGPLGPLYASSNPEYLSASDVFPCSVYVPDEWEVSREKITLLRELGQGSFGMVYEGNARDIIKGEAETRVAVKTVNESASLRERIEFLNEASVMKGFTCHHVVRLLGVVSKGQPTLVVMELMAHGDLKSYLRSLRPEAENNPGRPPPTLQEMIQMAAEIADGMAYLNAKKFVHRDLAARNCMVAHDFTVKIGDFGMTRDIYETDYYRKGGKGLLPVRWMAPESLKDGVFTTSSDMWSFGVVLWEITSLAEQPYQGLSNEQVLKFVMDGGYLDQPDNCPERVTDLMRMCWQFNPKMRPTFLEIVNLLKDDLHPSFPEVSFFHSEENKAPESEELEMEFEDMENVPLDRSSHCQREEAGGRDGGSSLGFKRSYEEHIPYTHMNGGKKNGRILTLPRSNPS
# Protocol: as §1
# IKKβ(h) = IKKβ(h) (Homo sapiens, UniProt O14920); settings: 100 μM ATP, lower number = more robust inhibition
# IKKβ(h), sequence (O14920 whole entry): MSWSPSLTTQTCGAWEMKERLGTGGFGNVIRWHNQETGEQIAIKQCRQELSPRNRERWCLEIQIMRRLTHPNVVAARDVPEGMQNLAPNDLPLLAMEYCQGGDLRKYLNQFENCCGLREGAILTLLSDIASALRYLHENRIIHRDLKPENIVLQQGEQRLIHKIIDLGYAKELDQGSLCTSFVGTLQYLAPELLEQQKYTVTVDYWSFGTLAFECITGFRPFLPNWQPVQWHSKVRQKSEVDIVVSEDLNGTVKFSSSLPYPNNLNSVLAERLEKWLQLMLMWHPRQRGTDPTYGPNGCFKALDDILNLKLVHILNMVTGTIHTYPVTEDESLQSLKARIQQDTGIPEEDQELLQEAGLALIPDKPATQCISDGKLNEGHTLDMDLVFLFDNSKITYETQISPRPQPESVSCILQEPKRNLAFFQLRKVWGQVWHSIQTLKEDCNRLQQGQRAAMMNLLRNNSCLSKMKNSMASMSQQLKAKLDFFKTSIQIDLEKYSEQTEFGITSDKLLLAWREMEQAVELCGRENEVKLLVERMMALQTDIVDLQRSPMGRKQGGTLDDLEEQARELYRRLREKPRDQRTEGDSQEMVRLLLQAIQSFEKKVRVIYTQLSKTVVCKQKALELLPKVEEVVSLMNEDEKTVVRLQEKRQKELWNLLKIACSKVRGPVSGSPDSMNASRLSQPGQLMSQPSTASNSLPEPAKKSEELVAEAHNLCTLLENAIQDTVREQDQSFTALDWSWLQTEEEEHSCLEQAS
# Protocol: as §1
# TGEBR1(h) = TGEBR1(h) (Homo sapiens, UniProt P36897); settings: 100 μM ATP, lower number = more robust inhibition
# Protocol: as §1
# PKA(h) = PKA(h) (Homo sapiens, UniProt P17612); settings: 100 μM ATP, lower number = more robust inhibition
# Protocol: as §1
# SAPK4(h) = SAPK4(h) (Homo sapiens, UniProt O15264); settings: 100 μM ATP, lower number = more robust inhibition
# Protocol: as §1
# IGF-1R(h) = IGF-1R(h) (Homo sapiens, UniProt P08069); settings: 100 μM ATP, lower number = more robust inhibition
# Protocol: as §1
# TrkC(h) = TrkC(h) (Homo sapiens, UniProt Q16288); settings: 100 μM ATP, lower number = more robust inhibition
# Protocol: as §1
# NEK2(h) = NEK2(h) (Homo sapiens, UniProt P51955); settings: 100 μM ATP, lower number = more robust inhibition
# Protocol: as §1
# CHK2(h) = CHK2(h) (Homo sapiens, UniProt O96017); settings: 100 μM ATP, lower number = more robust inhibition
# Protocol: as §1
# Blk(h) = Blk(h) (Homo sapiens, UniProt P51451); settings: 100 μM ATP, lower number = more robust inhibition
# Protocol: as §1
# ROCK-1(h) = ROCK-1(h) (Homo sapiens, UniProt Q13464); settings: 100 μM ATP, lower number = more robust inhibition
# Protocol: as §1
# CaMKIδ(h) = CaMKIδ(h) (Homo sapiens, UniProt Q8IU85); settings: 100 μM ATP, lower number = more robust inhibition
# Protocol: as §1
# FGFR1(h) = FGFR1(h) (Homo sapiens, UniProt P11362); settings: for efficiency in targeting FGFR1(h): 100 μM ATP, lower number = more robust inhibition
# FGFR1(h), sequence (P11362 22-822): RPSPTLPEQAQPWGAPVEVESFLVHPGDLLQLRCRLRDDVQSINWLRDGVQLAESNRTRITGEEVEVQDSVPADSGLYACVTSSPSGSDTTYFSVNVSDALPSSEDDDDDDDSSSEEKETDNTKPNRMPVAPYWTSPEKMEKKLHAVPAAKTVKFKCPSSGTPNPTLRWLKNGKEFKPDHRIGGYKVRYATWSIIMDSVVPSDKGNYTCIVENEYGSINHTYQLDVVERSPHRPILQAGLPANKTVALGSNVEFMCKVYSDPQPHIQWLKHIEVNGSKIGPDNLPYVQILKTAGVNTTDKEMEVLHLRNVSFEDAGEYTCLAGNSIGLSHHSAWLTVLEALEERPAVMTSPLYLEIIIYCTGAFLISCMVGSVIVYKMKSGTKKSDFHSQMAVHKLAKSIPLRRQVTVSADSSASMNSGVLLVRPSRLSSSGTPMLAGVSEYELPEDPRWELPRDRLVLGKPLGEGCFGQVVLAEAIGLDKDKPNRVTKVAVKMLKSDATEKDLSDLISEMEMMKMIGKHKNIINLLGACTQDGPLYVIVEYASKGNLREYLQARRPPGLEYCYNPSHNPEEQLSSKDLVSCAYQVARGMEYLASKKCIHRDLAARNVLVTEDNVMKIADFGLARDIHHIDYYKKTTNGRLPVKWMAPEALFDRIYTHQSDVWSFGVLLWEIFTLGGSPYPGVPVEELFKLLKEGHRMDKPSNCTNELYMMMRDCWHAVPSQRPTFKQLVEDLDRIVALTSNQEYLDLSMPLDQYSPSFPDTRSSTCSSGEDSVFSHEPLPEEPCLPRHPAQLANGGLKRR
# Protocol: as §1
# CDK1/cyclinB (Hh) = CDK1/cyclinB (Hh) (Homo sapiens, UniProt P06493); settings: 100 μM ATP, lower number = more robust inhibition
# Protocol: as §1
# ZIPK(h), sequence (O43293 whole entry): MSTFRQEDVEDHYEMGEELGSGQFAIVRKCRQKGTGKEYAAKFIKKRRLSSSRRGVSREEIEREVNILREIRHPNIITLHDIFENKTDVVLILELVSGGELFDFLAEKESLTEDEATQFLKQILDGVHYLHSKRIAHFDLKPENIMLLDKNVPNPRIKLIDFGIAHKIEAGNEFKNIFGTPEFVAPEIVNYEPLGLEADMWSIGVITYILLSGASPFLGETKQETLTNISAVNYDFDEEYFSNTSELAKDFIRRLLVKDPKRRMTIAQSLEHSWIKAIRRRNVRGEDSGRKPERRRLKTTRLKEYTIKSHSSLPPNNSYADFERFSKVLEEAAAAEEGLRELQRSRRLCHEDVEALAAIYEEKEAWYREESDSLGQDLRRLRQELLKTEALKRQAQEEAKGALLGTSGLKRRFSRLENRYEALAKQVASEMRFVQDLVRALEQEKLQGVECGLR
smiles,measurement,setting,value
"Nc1nc(Nc2ccc3c(c2)CC[C@@H](N2CCCC2)CC3)nn1-c1cc2c(nn1)-c1ccccc1CCC2 [R428, 1H-1,2,4-Triazole-3,5-diamine, 1-(6,7-dihydro-5H-benzo[6,7]cyclohepta[1,2-c]pyridazin-3-yl) N3-[(7S)-6,7,8,9-tetrahydro-7-(1-pyrrolidinyl)-5H-benzocyclohepten-2-yl]-]",efficiency in targeting ZIPK(h),ZIPK(h); R428 @ 1 μM,97
same,efficiency in targeting ZIPK(h),ZIPK(h); R428 @ 10 μM,46
same,efficiency in targeting SAPK3(h),SAPK3(h); R428 @ 1 μM,106
same,efficiency in targeting SAPK3(h),SAPK3(h); R428 @ 10 μM,108
same,efficiency in targeting Flt3(h),Flt3(h); R428 @ 1 μM,9
same,efficiency in targeting Flt3(h),Flt3(h); R428 @ 10 μM,1
same,inhibition of Flt (in words),Flt3(h); at 1 and 10 μM,potently inhibits
same,efficiency in targeting ZAP-70(h),ZAP-70(h); R428 @ 1 μM,92
same,efficiency in targeting ZAP-70(h),ZAP-70(h); R428 @ 10 μM,66
same,efficiency in targeting CK2α2(h),CK2α2(h); R428 @ 1 μM,112
same,efficiency in targeting CK2α2(h),CK2α2(h); R428 @ 10 μM,97
same,efficiency in targeting Eph A 2(h),Eph A 2(h); R428 @ 1 μM,54
same,efficiency in targeting Eph A 2(h),Eph A 2(h); R428 @ 10 μM,12
same,efficiency in targeting CK2(h),CK2(h); R428 @ 1 μM,103
same,efficiency in targeting CK2(h),CK2(h); R428 @ 10 μM,106
same,efficiency in targeting Ret(h),Ret(h); R428 @ 1 μM,1
same,efficiency in targeting Ret(h),Ret(h); R428 @ 10 μM,1
same,inhibition of Ret (in words),Ret(h); at 1 and 10 μM,potently inhibits
same,efficiency in targeting IR(h),IR(h); R428 @ 1 μM,83
same,efficiency in targeting IR(h),IR(h); R428 @ 10 μM,24
same,efficiency in targeting IKKβ(h),IKKβ(h); R428 @ 1 μM,86
same,efficiency in targeting IKKβ(h),IKKβ(h); R428 @ 10 μM,53
same,efficiency in targeting TGEBR1(h),TGEBR1(h); R428 @ 1 μM,97
same,efficiency in targeting TGEBR1(h),TGEBR1(h); R428 @ 10 μM,69
same,efficiency in targeting PKA(h),PKA(h); R428 @ 1 μM,88
same,efficiency in targeting PKA(h),PKA(h); R428 @ 10 μM,35
same,efficiency in targeting SAPK4(h),SAPK4(h); R428 @ 1 μM,94
same,efficiency in targeting SAPK4(h),SAPK4(h); R428 @ 10 μM,91
same,efficiency in targeting IGF-1R(h),IGF-1R(h); R428 @ 1 μM,93
same,efficiency in targeting IGF-1R(h),IGF-1R(h); R428 @ 10 μM,58
same,efficiency in targeting TrkC(h),TrkC(h); R428 @ 1 μM,47
same,efficiency in targeting TrkC(h),TrkC(h); R428 @ 10 μM,13
same,efficiency in targeting NEK2(h),NEK2(h); R428 @ 1 μM,60
same,efficiency in targeting NEK2(h),NEK2(h); R428 @ 10 μM,10
same,efficiency in targeting CHK2(h),CHK2(h); R428 @ 1 μM,47
same,efficiency in targeting CHK2(h),CHK2(h); R428 @ 10 μM,9
same,efficiency in targeting Blk(h),Blk(h); R428 @ 1 μM,27
same,efficiency in targeting Blk(h),Blk(h); R428 @ 10 μM,2
same,efficiency in targeting ROCK-1(h),ROCK-1(h); R428 @ 1 μM,93
same,efficiency in targeting ROCK-1(h),ROCK-1(h); R428 @ 10 μM,41
same,efficiency in targeting CaMKIδ(h),CaMKIδ(h); R428 @ 1 μM,76
same,efficiency in targeting CaMKIδ(h),CaMKIδ(h); R428 @ 10 μM,24
same,efficiency in targeting FGFR1(h),FGFR1(h); R428 @ 1 μM,17
same,efficiency in targeting FGFR1(h),FGFR1(h); R428 @ 10 μM,1
same,inhibition of FGFr1 (in words),FGFR1(h); at 1 and 10 μM,potently inhibits
same,efficiency in targeting CDK1/cyclinB (Hh),CDK1/cyclinB (Hh); R428 @ 1 μM,101
same,efficiency in targeting CDK1/cyclinB (Hh),CDK1/cyclinB (Hh); R428 @ 10 μM,88
